Measurements taken from patent publication EP0381374A1, “Phosphodiesterase inhibitors” (LES LABORATOIRES BEECHAM S.A., priority 1989, dated 1990).

Legend:
[1] = target: T1, CGI-PDE (i.e., c-GMP-inhibited PDE) (Canis lupus familiaris, UniProt A0A8I3NYE0); test: Inhibition of cardiac phosphodiesterases, Fraction IV (CGI-PDE); format: biochemical; conditions: canine left ventricle PDE Fraction IV
T1 construct: isoforms of canine left ventricle were separated by column ion exchange chromatography; from tissue; host or cells: canine left ventricle, Fractogel TSK DEAE 650 fraction IV
T1 sequence (A0A8I3NYE0 1-1135): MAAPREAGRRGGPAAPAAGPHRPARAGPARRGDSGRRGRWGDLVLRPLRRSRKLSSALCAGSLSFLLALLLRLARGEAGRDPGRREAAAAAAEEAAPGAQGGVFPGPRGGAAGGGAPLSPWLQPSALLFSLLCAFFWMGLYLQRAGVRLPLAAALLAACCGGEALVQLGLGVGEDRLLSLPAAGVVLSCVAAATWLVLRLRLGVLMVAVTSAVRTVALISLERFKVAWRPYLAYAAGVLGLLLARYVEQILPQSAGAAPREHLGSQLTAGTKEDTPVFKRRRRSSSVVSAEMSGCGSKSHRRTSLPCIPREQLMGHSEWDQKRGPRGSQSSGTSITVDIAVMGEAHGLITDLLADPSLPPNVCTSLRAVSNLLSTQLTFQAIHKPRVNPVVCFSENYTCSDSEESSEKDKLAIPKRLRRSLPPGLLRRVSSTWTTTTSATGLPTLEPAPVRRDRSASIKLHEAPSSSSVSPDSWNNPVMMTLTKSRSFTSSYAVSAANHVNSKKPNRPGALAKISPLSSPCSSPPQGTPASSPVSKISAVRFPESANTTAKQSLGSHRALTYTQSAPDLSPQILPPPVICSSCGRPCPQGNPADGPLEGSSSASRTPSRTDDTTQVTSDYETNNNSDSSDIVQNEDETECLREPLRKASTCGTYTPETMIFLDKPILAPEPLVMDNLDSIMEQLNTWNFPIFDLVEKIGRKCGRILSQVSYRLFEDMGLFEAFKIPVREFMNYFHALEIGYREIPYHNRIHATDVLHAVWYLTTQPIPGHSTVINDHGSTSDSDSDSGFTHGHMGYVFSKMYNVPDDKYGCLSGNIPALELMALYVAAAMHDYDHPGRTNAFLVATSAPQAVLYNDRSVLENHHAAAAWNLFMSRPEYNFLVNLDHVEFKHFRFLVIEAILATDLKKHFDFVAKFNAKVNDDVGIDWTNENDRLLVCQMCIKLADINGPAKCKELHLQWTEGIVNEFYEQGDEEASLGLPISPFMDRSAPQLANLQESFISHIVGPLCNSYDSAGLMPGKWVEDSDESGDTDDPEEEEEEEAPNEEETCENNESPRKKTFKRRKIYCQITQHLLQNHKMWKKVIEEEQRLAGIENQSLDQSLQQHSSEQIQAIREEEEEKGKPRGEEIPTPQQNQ
Method: 2. Inhibition of Cardiac Phosphodiesterases
The phosphodiesterases (PDE) isoforms of canine left ventricle were separated by column ion exchange chromatography, using a minor modification of the method previously described by Alvarez et al. (Mol. Pharmacol., 1986, 29, 554-560). A Fractogel TSK DEAE 650 column was used and the PDEs were eluted using a continuous sodium acetate gradient (50 to 500 mM). The flow rate was 1.2ml/min and fractions of c.a. 8ml were collected as described by Weishaar et al. (Biochem. Pharmacol., 1986, 35, 787-800).
Four isoforms were identified • i) Fraction I or CAM-PDE (i.e. Ca⁺⁺/calmodulin-activated PDE), which hydrolyses both c-AMP and c-GMP, and presents a low Km for c-AMP over a wide range of concentration. It is activated by Ca⁺⁺/calmodulin. • ii) Fraction II or CGS-PDE (i.e. c-GMP-stimulated PDE), which hydrolyses more specifically c-GMP, and presents a high Km, for c-AMP over a wide range of concentration. It is stimulated by c-GMP. • iii) Fraction III or NCGI-PDE (i.e. not c-GMP-inhibited PDE), which hydrolyses more specifically c-AMP and presents two relatively low Km sites of affinity. It is not inhibited by c-GMP. iv) Fraction IV or CGI-PDE (i.e., c-GMP-inhibited PDE), which also hydrolyses more specifically c-AMP, and also presents two relatively low Km site of affinity. It is inhibited by c-GMP.
The inhibitory effect of the test compounds was expressed as the IC₅₀, i.e. the concentration which inhibits the activity by 50%, this value being expressed in micromoles.

[2] = tested on: Canine cardiac myofibrillar Ca⁺⁺-dependent Mg⁺⁺ ATPase; test: Measurement of myofibrillar Ca++-dependent Mg++-ATPase activity; format: biochemical; conditions: Concentration: 3 x 10⁻⁵ molar; for Max ATPase activity(%): percent change of ATPase activity for pCa = 5.47; for Shift in pCa50 (ΔpCa50): shift of the pCa giving 50% of the maximal control ATPase activity, 21°C, pH 7.0
Method: 1. Measurement of myofibrillar Ca++-dependent Mg++-ATPase activity
The effect on Ca++sensitivity and on maximal activity of myofibrillar Ca++-dependent Mg++-ATPase was determined on canine cardiac myofibrils.
(a) Contractile protein preparation
Cardiac myofibrils free of membrane contaminants were prepared from left ventricular tissue of dog hearts using a modification of the method described by SOLARO et al, Biochem. Biophys. Acta, 245, 259-262, (1971). Before centrifugation, the heart homogenate was filtered through gauze.
After Triton X-100 treatments, the myofibrillar fraction was washed once by resuspension and centrifugation in 10 volumes of 1 mM EGTA, […] KCl, 30 mM imidazole, 2 mM MgCl₂, pH 7.0. The pellet was then washed three times in 10 volumes of the same buffer without EGTA. Before the last centrifugation, the suspension of myofibrils was filtered through a stainless steel sieve with 0.25 mm meshes.
Myofibrils were kept in pellet overnight. Before use, the pellet was suspended in a small amount of buffer, the protein concentration was determined by the method of BRADFORD M., Anal. Biochem., 1976, 72, 248 and adjusted in order to have a concentration between 6 and 7mg/ml, using gamma globuline as standard.
(b) Myofibrillar ATPase activity
Ca++-dependent myfibrillar ATPase activity was determined at 21 °C, pH 7.0, by measuring the rate of release of inorganic phosphate. All assays were performed within 24hrs. of final purification, using the method described by SOLARO and RUEGG, CIRC. RES., 51, 290-4,(1982). Reaction mixtures (4ml) containing 0.6 - 0.7 mg/ml myofibrillar protein, 80mM KCl, 20 mM imidazole, 3 mM MgCl₂, 1 mM EGTA, the desired amount of CaCl₂, and the indicated concentration of drug or appropriate vehicle were preincubated for 6 min. prior to assay. The amount of CaCl₂ was varied between 0 and 0.9 mM and the pca (-log free Ca++) computed using 2.514 x 10⁶ M⁻¹ as the apparent affinity of Ca++ for EGTA at pH 7.0.
Reactions were initiated by the addition of Na₂ATP to final concentration of 2 mM. After an incubation period of 12 min., reactions were quenched by the addition of an equal volume of ice-cold 10% trichloroacetic acid. The protein was pelleted by centrifugation (2000g, 15 min.) and Pi was assayed in the supernatant fraction using a modification of the method described by LANZETTA et al, Anal. Biochem., 100, 95-97, (1979).
The following solutions were prepared: • (1) 3.7% ammonium heptamolybdate in 0.12 N H₂SO₄ • (2) 0.074% malachite green oxalate in 1% polyvinylic alcohol.
The colour reagent was prepared by mixing an equal volume of solution (1) and (2) 15 min. before the assay. For the assay, 1700 µl of 1% H₂SO₄ and 1 ml of colour reagent were added to 100 µl of sample. Colour development occurred at room temperature for 30 min. and was quenched by the addition of 200 µl of 1 M tri-potassium citrate. The absorbance was measured at 620 millimicrons.
The effect of each compound, tested at the indicated concentration, on the relation between pCa and percent activation was determined taking 100% for the maximum ATPase activity obtained with vehicle alone. The effect on Ca++ sensitivity was quantified by measuring the shift of the pCa giving 50% of the maximal control ATPase activity.
The effect on maximal ATPase activity was expressed as the percent change of ATPase activity for pCa = 5.47.

| IC50 [1] | Max ATPase activity(%) [2] | Shift in pCa50 (ΔpCa50) [2] | Compound |
| --- | --- | --- | --- |
| 15 µM | – | – | CC1SC(=O)NN=C1c1ccc2c(c1)C(C)(C)C(=O)N2C(=O)Nc1ccccc1 (stereo not drawn) [Example 2, 2,3-Dihydro-5-(3,6-dihydro-6-methyl-2-oxo-2H-1,3,4-thiadiazin-5-yl)-3,3-dimethyl-2-oxo-N-phenyl-1H-indole-1-carboxamide] |
| 0.87 µM | -18% | 0.19 | CC1SC(=O)NN=C1c1ccc2c(c1)C1(CCCC1)C(=O)N2C(=O)c1ccc(N)cc1.Cl (stereo not drawn) [Example 1, 1′-[(4-Aminophenyl)carbonyl]-5′-(3,6-dihydro-6-methyl-2-oxo-2H-1,3,4-thiadiazin-5-yl)-spiro[cyclopentane-1,3′-[3H]-indol]-2′(1′H)-one, hydrochloride] |
| 6.7 µM | – | 0.23 | CCOC(=O)CN1C(=O)C(C)(C)c2cc(C3=NNC(=O)SC3C)ccc21 (stereo not drawn) [Example 3, Ethyl 2,3-dihydro-5-(3,6-dihydro-6-methyl-2-oxo-2H-1,3,4-thiadiazin-5-yl)-3,3-dimethyl-2-oxo-N-1H-indole-1-acetate] |
| – | +11% | 0.32 | 1-Cyclohexylmethyl-5-(3,6-dihydro-6-methyl-2-oxo-2H-1,3,4-thiadiazin-5-yl)-1,3-dihydro-3,3-dimethyl-2H-indol-2-one [Example 9] |
| – | – | 0.99 | CC1SC(=O)NN=C1c1ccc2c(c1)C(C1CCCCC1)C(=O)N2 (stereo not drawn) [Example 10, 3-Cyclohexyl-1,3-dihydro-5-(3,6-dihydro-6-methyl-2-oxo-2H-1,3,4-thiadiazin-5-yl)-2H-indol-2-one] |
| – | – | 0.38 | CC1SC(=O)NN=C1c1ccc2c(c1)C(C)(C)C(=O)N2Cc1ccccc1 (stereo not drawn) [Example 5, 1,3-Dihydro-5-(3,6-dihydro-6-methyl-2-oxo-2H-1,3,4-thiadiazin-5-yl)-3,3-dimethyl-1-(phenylmethyl)-2H-indol-2-one] |
| – | – | 0.20 | CC1SC(=O)NN=C1c1ccc2c(c1)C(C)(C)C(=O)N2c1ccccc1 (stereo not drawn) [Example 7, 1,3-Dihydro-5-(3,6-dihydro-6-methyl-2-oxo-2H-1,3,4-thiadiazin-5-yl)-3,3-dimethyl-1-phenyl-2H-indol-2-one] |
| – | – | 0.21 | O=C1NN=C(c2ccc3c(c2)C(Sc2ccccc2)C(=O)N3)CS1 (stereo not drawn) [Example 11, 1,3-Dihydro-5-(3,6-dihydro-2-oxo-2H-1,3,4-thiadiazin-5-yl)-3-phenylthio-2H-indol-2-one] |
| – | – | 0.49 | O=C1NN=C(c2ccc3c(c2)C(C2CCCCC2)C(=O)N3)CS1 (stereo not drawn) [Example 12, 3-Cyclohexyl-1,3-dihydro-5-(3,6-dihydro-2-oxo-2H-1,3,4-thiadiazin-5-yl)-2H-indol-2-one] |
| 3.2 µM | – | 0.68 | CC1SC(=O)NN=C1c1ccc2c(c1)C(c1ccccc1)C(=O)N2 (stereo not drawn) [Example 4, 1,3-Dihydro-5-(3,6-dihydro-6-methyl-2-oxo-2H-1,3,4-thiadiazin-5-yl)-3-phenyl-2H-indol-2-one] |
